# Patent US20090176864A1, “Methods For Improving Hepatic and Immune Function In An Animal” (Hill's Pet Nutrition, Inc., priority 2004, published 2009)
# What was measured:
# Assay type in all cases: in vivo
# [1] = Bodyweight of cats fed lipoic acid fortified food
# Protocol: (§1) The study involved three groups of cats: Group 1) cats on a dry control food, Group 2) cats on a dry food fortified with approximately 65 ppm of lipoic acid, and Group 3) cats on a dry food fortified with approximately 650 ppm of lipoic acid on a dry matter basis. All cats were fled control food for a two week baseline period at the end of which time immune function assays were performed. One group of cats was then switched to the 65 ppm test food, one group to the 650 ppm test food and one group remained on control and all were fed for another 6 weeks at which time the baseline tests were performed again.
# lymphocyte proliferation [2] = assay: Pokeweed mitogen-activated lymphocyte proliferation; conditions: cats
# Protocol: as §1
# lymphocyte proliferation [3] = assay: Lymphocyte proliferation activity in old cats (overall statement); conditions: lipoic acid in food
# Protocol: as §1
# lymphocyte proliferation [4] = assay: Concanavalin A-activated lymphocyte proliferation; conditions: cats; for Concanavalin A-activated lymphocyte proliferation compared to baseline: 6 weeks
# Protocol: as §1
# lymphocyte proliferation [5] = assay: Phytohaemagglutinin (PHA)-activated lymphocyte proliferation; conditions: cats
# Protocol: as §1
# [6] = 65 ppm lipoic acid in food, 6 weeks
smiles,measurement,setting,value
O=C(O)CCCC[C@@H]1CCSS1 (racemic) [lipoic acid],effects on bodyweight,[1]; 65 ppm lipoic acid in food for 6 weeks,no adverse effects
same,effects on bodyweight,[1]; 650 ppm lipoic acid in food for 6 weeks,no adverse effects
same,Pokeweed mitogen-stimulated lymphocyte proliferation compared to baseline,lymphocyte proliferation [2]; [6],significantly increased
same,"Pokeweed Mitogen stimulation, difference between groups","lymphocyte proliferation [2]; control vs 65 ppm vs 650 ppm, ANOVA, beginning and end of study",different between groups (ANOVA P<0.05) at the beginning but not the end
same,lymphocyte proliferation activity,lymphocyte proliferation [3],improved
same,Concanavalin A-activated lymphocyte proliferation compared to baseline,lymphocyte proliferation [4]; 65 ppm lipoic acid in food,significant increase
same,Concanavalin A-activated lymphocyte proliferation compared to baseline,lymphocyte proliferation [4]; 650 ppm lipoic acid in food,displayed an increase
same,"Concanavalin A stimulation, difference between the groups","lymphocyte proliferation [4]; control vs 65 ppm vs 650 ppm, beginning and end of study",no significant difference
same,PHA-stimulated lymphocyte proliferation between baseline and 6 weeks,lymphocyte proliferation [5]; [6],significant increase
same,"PHA stimulation, difference between groups","lymphocyte proliferation [5]; control vs 65 ppm vs 650 ppm, beginning or end",no significant difference
